Experimental data taken from patent publication EP0267996A1, “New nucleotide derivatives” (TAMIR BIOTECHNOLOGY LTD., priority 1986, dated 1988).

What was measured:
Type in all cases: binding
Details in all cases: for Cross-reaction (%): RIA, 100x/y, masses of testosterone and heterologous compound giving 50% inhibition of binding of the tritiated ligand
[1] = test system: monoclonal antibody to testosterone, clone D11 (rat spleen x mouse myeloma NSO/1 hybridoma; heavy chain class Y2a); assay: Dextran-coated charcoal radioimmunoassay (RIA): affinity and specificity of antibody in ascitic fluid
Procedure: (§1) Characterization of antibodies: A dextran-coated charcoal radioimmunoassay method was used to detect specific antibodies to testosterone. Antibody titer denotes the dilution at which 50% of the labelled ligand, added at concentrations of 50 pg./ml., is bound as determined by radioimmunoassay. Cross reactivity (%) was calculated as proposed by Thorneycroft et al ("Immunologic Methods", Steroid Determination, Peron and Caldwell, eds., Appleton-Century-Crofts, New York 1970, pp. 63-86). as 100x/y where x is the mass of testosterone and y is the mass of heterologous compound required to produce 50% inhibition of the binding of the tritiated ligand. Affinity of the antibodies was calculated according to Abraham et al in Handbook of Radioimmunoassay, Marcel Dekker Inc., New York, 1977, pp. 591-656.
(§2) After two weeks of growth, antibody-secreting hybridomas were detected by a RIA procedure in the tissue culture media of 30 out of the 147 cultures. During subsequent cell culture, 3 hybridoma lines that yielded high antibody titers were cloned by limiting dilutions and sub-cloned on semi-solid agar. When injected i.p. into pristane-trea ted irradiated F₁ mice or nude mice, the hybridomas grew as tumors and secreted high amounts of anti-testosterone antibodies into the ascitic fluid of these mice, with titers ranging from 1:10,000 to 1:60,000 (Table 1).
(§3) Characterization of monoclonal antibodies: The ascitic fluid of mice derived from three hybridomas. H₆, F₂ and D₁₁ was further characterized for affinity and specificity by a dextran-coated RIA procedure.

[2] = test system: monoclonal antibody to testosterone, clone F2 (rat spleen x mouse myeloma NSO/1 hybridoma; heavy chain class IgM); assay: as above
Procedure: as §1, §2, §3

[3] = test system: monoclonal antibody to testosterone, clone H6 (rat spleen x mouse myeloma NSO/1 hybridoma; heavy chain class Y2a); assay: as above
Procedure: as §1, §2, §3

[4] = test system: Polyclonal Rat IgG to testosterone (from the rats used for the fusion experiments); assay: Dextran-coated charcoal radioimmunoassay (RIA): affinity and specificity of antibody
Procedure: Immunization: Wistar-derived female rats (2 to 3 months old) from the Departmental Colon y were immunized by an intradermal injection of testosterone-3-(O-carboxymethyl)-oxime bovine serum albumin conjugate (200 ug/rat) incorporated in complete Freund's adjuvant. A month later the injection was repeated, and booster injections (100 ug/rat) were given three weeks later. All animals were bled from the tail ten days after the booster injection, and the antisera were tested then for titer and specificity.
as §1

[5] = calculated according to the method of Abraham et al

| SMILES | Cross-reaction (%) [1] [%] | Cross-reaction (%) [2] [%] | Cross-reaction (%) [3] [%] | Cross-reaction (%) [4] [%] | Ka [1, 5] [L/mol] | Ka [2, 5] [L/mol] | Ka [3, 5] [L/mol] | Ka [4, 5] [L/mol] |
| --- | --- | --- | --- | --- | --- | --- | --- | --- |
| C[C@]12CCC(=O)C[C@@H]1CC[C@@H]1[C@@H]2CC[C@]2(C)[C@@H](O)CC[C@@H]12 [5-alpha-Dihydrotestosterone] | 100 | 2 | 100 | 10 | – | – | – | – |
| C[C@]12CCC(=O)C[C@H]1CC[C@@H]1[C@@H]2CC[C@]2(C)[C@@H](O)CC[C@@H]12 [5-beta-Dihydrotestosterone] | 8.5 | 15 | 0.5 | 2 | – | – | – | – |
| C[C@]12CC[C@H]3[C@@H](CCC4=CC(=O)CC[C@@]43C)[C@@H]1CC[C@@H]2O [Testosterone] | 100 | 100 | 100 | 100 | 1.85e+10 | 1e+10 | 2.1e+10 | 3.7e+09 |
